These results are taken from patent US11197812B2, “Cosmetic formulations for topical applications containing erythropoietin-derived molecules” (ASC REGENITY LTD., priority 2016, dated 2021).

Where no end group is shown, it is not given here.

Data set [1] has as its system persons suffering from acne. As to conditions: human, in vivo. Here is the method: Four test groups (corresponding to the “peptides, 0, 2, 3 and 4”) with each five persons (in total, 20 subjects) suffering from acne, were treated twice daily with a formulation of the invention (“iARP-lotion” with trigger factor complex) for one week. No undesirable or even pathological lesions in the relevant skin area of the test persons were observed.

Data set [2] relates to severe acne on the face and neck. Briefly: Acne Trial 1 (single test person). It is filed as in vivo, human. The settings on record: after one week of treatment with the respective formulation. Here is the method: The test person was a person with severe acne on the face and neck. They were treated for one week with a standard cosmetic formulation based on a control lipid (dexpanthenol/panthenol), but without a polypeptide according to the invention. […] Then a cosmetic formulation according to the invention was applied, but again without a polypeptide according to the invention. The formulation contained ceramides and lecithin instead of dexpanthanol, and amino acids such as L-arginine. […] The test person then was treated with a formulation of the invention now comprising “Peptide 0”. […] After 3 weeks the test person was treated with the same formulation but which now comprised “Peptide 4” instead of the reference polypeptide (“Peptide 0”).

The test system of data set [3] is facial skin of healthy subjects. Briefly: Cosmetic skin improvement assay (Canfield VISIA facial skin analysis). It is filed as in vivo, human. The settings on record: cream once a day, after one month, versus controls / dexpanthenol 5% / QEQLERALNSS formulation. The source says:
In this assay the cosmetic facial skin appearance upon application of the formulations of this invention was monitored. For that purpose, the commercially available state-of-the-art facial skin imaging and data analysis platform, the Canfield Bio Visia™, was utilized, (see here: https://www.canfieldsci.com/imaging-systems/visia-complexion-analysis/). This platform provides the possibility of a i) highly standardized, ii) highly reproducible, iii) quantitative, iv) non-invasive, and vi) subject or tester bias-free skin quality analysis. It records several photos of the face from different angles and records absorption/reflection spectra (see figure: Canfield VISIA facial skin analysis platform). […] The in-built software standardizes every parameter by comparison to a large database of skin feature norms and returns a value in the range of 0%-to 100% to permit inter-individual subject comparison.
Healthy subjects received cosmetic creams with formulations of this invention or controls in a blinded manner, i.e. the subjects were unaware of the identity of the received cosmetic cream. […] Subject skin quality was assessed before the start of the application and after one month (31±3 days). As a control, to account for seasonal and lifestyle change associated skin quality changes, quality of the hand exterior surface was monitored as well. […]

Another data set deals with skin. The data set is described as follows: Relative cosmetic relevance in over-all skin-protective activity. Set-up: species or system human.
In data set [4] the test system is UV light-induced erythema on skin of healthy subjects. The data set is described as follows: Erythema recovery assay (UVB light-induced erythema, doubled MED). As to conditions: 20 μl lotion on 1×1 cm^2 area, 6 hours after exposure, normalized redness. It is filed as in vivo, human. The source says: Another means of measuring the efficacy of tissue-protection exerted by any formulation is the speed of skin recovery from a UVB light-induced erythema such as common sunburns. Erythema are skin irritations with enhanced redness of the skin due to local hyperaemia (enhanced blood flow in superficial capillaries) that is associated with repair processes in the skin. The quicker the repair process is, the quicker the hyperaemia gets shut down and thus the quicker the skin redness gets reduced to normal levels. Accordingly, the redness can be measured as a proxy for the damage status of the skin.
In this assay, healthy subjects received the doubled minimal erythema dose (MED) on skin areas of about 1×1 cm^2 on the left arm. Beforehand, the MED was determined individually for each subject by exposing other skin areas to increasing intensities of UV light emitted by the UV6 lamp (280-360 nm) of the Waldmann UV 802 L device. […]
Before light double MED exposure and after 6 hours, skin redness in the exposed area was spectroscopically measured using the ‘chroma meter CR-400’ manufactured by Konica Minolta. Redness of every area in every subject 6 hours after the exposure was normalized to the redness of the same area before the exposure by division of measured redness values. […]

For the molecule NEQLERALNTS [Peptide 2, NEQLERALNTS], in data set [1], the “overall skin tolerance compatibility” value is “improved overall skin tolerance compatibility as excellent” and the “unwanted skin reactions caused by skin-irritating or sensitizing effects” value (“unwanted skin reactions caused” for short) is on record as “did not trigger any unwanted skin reactions”.
QDQLERALNTS [Peptide 4, QDQLERALNTS]: in data set [1], the “overall skin tolerance compatibility” value was “still rated good” and the “unwanted skin reactions caused” value is on record as “did not trigger any unwanted skin reactions”.
“QEQLERALNSS [Peptide 0, QEQLERALNSS, reference compound]”: the “unwanted skin reactions caused” value in data set [1] is “did not trigger any unwanted skin reactions”.
Turning to `CC(C)(CO)[C@@H](O)C(=O)NCCCO` [Dexpanthenol], the change of acne result in data set [2] is on record as “slightly reduced”.
Take “NEQLERALNST (RRQEQLERALNSSRR; ′Peptide 0′ plus vasculature relaxation stimulating agents at 5′- and 3′ end;) [Peptide 1]”: the “improvement of measured skin parameters (spots, wrinkles, smoothness)” value in data set [3] is “performed even better than the formulations with the previously described […] peptide”. The “relative cosmetic relevance in over-all skin-protective activity (rank order)” value with skin is listed as “EPO<EPO fragments 1-3<Peptide 0, 1<Peptide 3<Peptide 2<Peptide 4”. In data set [4], the “double MED-induced skin redness (erythema)” value is “performed even better than the formulations with the previously described […] peptide”.
QDQLERALNST [Peptide 3, QDQLERALNST]: in data set [1], the “overall skin tolerance compatibility” value is on record as “improved overall skin tolerance compatibility as excellent” and the “unwanted skin reactions caused” value is on record as “did not trigger any unwanted skin reactions”.
